Reference: article PMC4876117, “Functional Dissection of the Bipartite Active Site of the Class I Coenzyme A (CoA)-Transferase Succinyl-CoA:Acetate CoA-Transferase” (Frontiers in Chemistry, 2016)

Assays:
AarC (AarCH6) [1] = biological target: T1, AarC (AarCH6) (Acetobacter aceti, UniProt B3EY95, N347A); assay: X-ray crystallography (co-crystal); type: binding; settings: 10 mM CoA, sodium citrate, imidazole pH 8.2, 22 °C; 2.13 Å; active site
T1 construct: C-terminal hexahistidine tag kept, plasmid pJK385 (N347A: pJK524), expressed in E. coli C41(DE3) pREP4-groESL, homodimer

AarC (AarCH6) [2] = biological target: T2, AarC (AarCH6) (Acetobacter aceti, UniProt B3EY95); assay: X-ray crystallography (co-crystal); type: binding; settings: sodium citrate, imidazole pH 8.2, 22 °C
T2 construct: C-terminal hexahistidine tag kept, plasmid pJK385 (N347A: pJK524), expressed in E. coli C41(DE3) pREP4-groESL, homodimer

T1 sequence (B3EY95 whole entry N347A): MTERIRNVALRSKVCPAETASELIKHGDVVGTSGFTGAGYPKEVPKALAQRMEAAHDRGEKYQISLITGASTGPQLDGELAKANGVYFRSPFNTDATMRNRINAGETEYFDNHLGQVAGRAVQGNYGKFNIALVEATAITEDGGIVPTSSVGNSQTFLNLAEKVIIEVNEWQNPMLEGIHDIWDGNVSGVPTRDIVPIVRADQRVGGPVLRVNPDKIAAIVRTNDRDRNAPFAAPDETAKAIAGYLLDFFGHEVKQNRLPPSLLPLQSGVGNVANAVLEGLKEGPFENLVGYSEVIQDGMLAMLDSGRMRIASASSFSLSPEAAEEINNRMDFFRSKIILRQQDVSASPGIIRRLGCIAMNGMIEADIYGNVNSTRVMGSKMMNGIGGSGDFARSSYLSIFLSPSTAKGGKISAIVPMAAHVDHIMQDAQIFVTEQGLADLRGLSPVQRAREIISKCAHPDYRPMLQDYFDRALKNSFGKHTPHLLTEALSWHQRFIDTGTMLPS

## CC(C)(COP(=O)(O)OP(=O)(O)OC[C@H]1O[C@@H](n2cnc3c(N)ncnc32)[C@H](O)[C@@H]1OP(=O)(O)O)[C@@H](O)C(=O)NCCC(=O)NCCS [CoA]
AarC (AarCH6) [1]
  X-ray crystallography (co-crystal): The B subunits of AarC-N347A (PDB entry 5ddk, white carbon atoms)

## CC(=O)O [acetate]
AarC (AarCH6) [2]; 1-50 mM sodium acetate, 1.62 Å, three sites per subunit, the first near the active site, also in 5dw6 with 2a
  X-ray crystallography (co-crystal): The final model contained three acetate binding sites in each subunit

## CCCNC(=O)CCNC(=O)[C@H](O)C(C)(C)COP(=O)(O)OP(=O)(O)OC[C@H]1O[C@@H](n2cnc3c(N)ncnc32)[C@H](O)[C@@H]1OP(=O)(O)O [2a, 3′-phosphoadenosine 5′-(O-(N-propyl-R-pantothenamide))pyrophosphate]
AarC (AarCH6) [2]; 1-3 mM 2a, 1.66 Å, active site, 5dw6 is the complex with added acetate (1.55 Å)
  X-ray crystallography (co-crystal): The AarC•2a complex (PDB entry 5dw5) contained three chloride ions
